Where “and” joins values, the source holds several entries; their conditions need not be identical. Identical values can stand only once. Where a SMILES comes first, the peptide text is derived from it. Bridges are numbered along the chain shown (N, C = ends).
Tests used:
[1] = tested on: cerebellar granule neurons; assay type: cell-based
[2] = tested on: cerebellar granule neurons
[3] = molecular target: TrkB receptor on cultured cerebellar granule neurons

Row | Molecule | internalization of Hc-TeNT fragment (area occupied by Hc-TeNT) [1] | percentage of Hc-TeNT in colocalization with TrkB [1] | percentage of TrkB in co-localization with Hc-TeNT [1] [%] | competition with the Hc-TeNT fragment for binding to cell membrane [2] | IC50 ([2]; 3 h) [µM] | IC50 (concentration of unlabeled competitor necessary to displace 50% of specifically bound Hc-TeNT) ([2]; 3 h) [µg/mL] | IC50 [3]
1 | CSCC[C@@H]1NC(=O)CNC(=O)[C@H](CC(N)=O)NC(=O)[C@H](CC(N)=O)NC(=O)[C@H](CCSC)NC(=O)[C@H](Cc2c[nH]cn2)NC(=O)[C@H]([C@@H](C)O)NC(=O)[C@@H]2CCCN2C(=O)[C@H](CC(N)=O)NC(=O)[C@H](CC(=O)O)NC(=O)[C@H](CC(C)C)NC(=O)[C@H](CCC(N)=O)NC(=O)[C@H](CC(C)C)NC(=O)[C@@H](NC(=O)CN)CSSC[C@@H](C(=O)N[C@@H](CC(N)=O)C(=O)N[C@@H](CC(N)=O)C(=O)NCC(=O)O)NC(=O)[C@H](Cc2c[nH]cn2)NC(=O)[C@H]([C@@H](C)O)NC(=O)[C@@H]2CCCN2C(=O)[C@H](CC(N)=O)NC(=O)[C@H](CC(=O)O)NC(=O)[C@H](CC(C)C)NC(=O)[C@H](CCC(N)=O)NC(=O)[C@H](CC(C)C)NC1=O [d5 peptide] (H-GCLQLDNPTHMNNGMLQLDNPTHCNNG-OH; disulfide 2-24) | seems not to affect | about 44% | 51 | capable to compete | 108 | 317.3 | –
2 | BDNF (from UniProt P23560 129-247) (ligand) | – | – | – | – | – | – | 4.2 nM and 0.06 µg/mL

— patent publication EP3144007A1 (priority 2015, dated 2017)
